From patent EP0560267B1, “Isosteric antiherpes peptide derivatives” (BOEHRINGER INGELHEIM (CANADA) LTD., priority 1992, dated 1993)
pEC50, pIC50: −log10 of the molar value. Like-named read-outs stand apart in the source and are kept apart here.

What was measured:
[1] = molecular target: T1, HSV-1 ribonucleotide reductase (Human herpesvirus 1, UniProt P08543); experiment: Inhibition of Herpes Simplex Virus (HSV-1) ribonucleotide reductase; assay type: biochemical
T1 construct: HSV-1 ribonucleotide reductase (partially purified) was obtained from quiescent BHK-21/C13 cells infected with strain F HSV-1 virus; made in house; host or cells: quiescent BHK-21/C13 cells infected with HSV-1 strain F (virus-encoded enzyme, partially purified)
T1 sequence (P08543 whole entry): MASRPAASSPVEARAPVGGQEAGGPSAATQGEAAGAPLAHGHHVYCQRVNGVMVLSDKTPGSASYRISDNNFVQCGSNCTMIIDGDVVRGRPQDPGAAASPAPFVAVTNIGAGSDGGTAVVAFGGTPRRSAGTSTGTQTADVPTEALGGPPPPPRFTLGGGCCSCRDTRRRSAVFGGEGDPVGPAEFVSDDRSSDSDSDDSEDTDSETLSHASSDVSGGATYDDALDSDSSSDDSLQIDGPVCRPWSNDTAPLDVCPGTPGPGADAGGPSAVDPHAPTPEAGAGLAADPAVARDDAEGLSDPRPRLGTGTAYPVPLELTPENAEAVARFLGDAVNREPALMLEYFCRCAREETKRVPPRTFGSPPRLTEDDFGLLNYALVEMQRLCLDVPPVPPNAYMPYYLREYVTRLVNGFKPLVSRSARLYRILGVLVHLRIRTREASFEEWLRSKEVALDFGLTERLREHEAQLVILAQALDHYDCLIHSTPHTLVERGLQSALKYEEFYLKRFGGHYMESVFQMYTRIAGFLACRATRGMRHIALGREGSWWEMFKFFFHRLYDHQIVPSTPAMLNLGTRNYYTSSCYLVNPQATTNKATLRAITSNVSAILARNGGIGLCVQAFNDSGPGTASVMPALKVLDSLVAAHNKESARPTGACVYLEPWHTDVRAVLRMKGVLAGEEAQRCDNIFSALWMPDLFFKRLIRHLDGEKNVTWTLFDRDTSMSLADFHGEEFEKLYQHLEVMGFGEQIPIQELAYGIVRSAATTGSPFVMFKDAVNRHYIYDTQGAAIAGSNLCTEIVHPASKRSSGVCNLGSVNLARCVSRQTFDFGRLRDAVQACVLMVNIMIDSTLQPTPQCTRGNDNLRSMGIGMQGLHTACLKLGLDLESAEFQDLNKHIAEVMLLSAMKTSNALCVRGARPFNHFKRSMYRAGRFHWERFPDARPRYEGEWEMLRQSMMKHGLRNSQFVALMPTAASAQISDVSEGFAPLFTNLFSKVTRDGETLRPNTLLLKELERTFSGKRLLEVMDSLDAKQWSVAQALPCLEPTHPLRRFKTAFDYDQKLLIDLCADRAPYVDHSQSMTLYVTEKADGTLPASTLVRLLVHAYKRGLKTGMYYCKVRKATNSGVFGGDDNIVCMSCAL
How it was run: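 Partially purified enzyme from quiescent BHK-21/C13 cells infected with HSV-1 strain F at 10 PFU/cell, used at constant units per assay. IC50 taken as concentration giving 50% of maximal inhibition versus no-compound control; mean of four assays.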

[2] = tested on: HSV-2; experiment: Inhibition of Herpes Simplex Virus (HSV-2) replication in cell culture; assay type: cell-based
How it was run: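 Serum-starved BHK-21/C13 cells infected with HSV-2 strain HG-52 (MOI 0.02 PFU/cell), then exposed to compound in BBMT medium for 29 h at 37°. Progeny virus titrated on fresh BHK-21/C13 cells by neutral red viability read at 540; EC50 as concentration halving virus replication.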

[3] = Human alphaherpesvirus 2, Table IV, cell culture assay of example 11, read-out: EC50
[4] = Human alphaherpesvirus 2, Table V, cell culture assay of example 11
[5] = Table I, partially purified enzyme from BHK-21/C13 cells infected with strain F HSV-1, mean of four assays
[6] = Human alphaherpesvirus 2, BHK21 (C13), 29 h, Table II, BHK-21/C13 cells, HSV-2 strain HG-52, 0.02 PFU/cell, 29 h incubation, read-out: EC50
[7] = Table IV, cell culture assay of example 11, read-out: EC50

Compound | pIC50 ([1]; Table IV, assay of example 10) | pIC50 ([1]; Table V, assay of example 10) | pEC50 [2, 4] | other results
CCCC(CCC)NC(=O)NC(C(=O)CC(CC(=O)C(C)(C)C)C(=O)NC(C(=O)NN(CC)C(C)(C)C)C1(C(=O)O)CCCC1)C(C)(C)C [Pr2CHNHC(O) / NHN(Et)CMe3, Pr2CHNHC(O)-Tbg-CH2-(R)-CH(CH2C(O)CMe3)C(O)-Asp(cyPn)-NHN(Et)CMe3] | 6.66 |  |  | pEC50 [2, 3]: 4.10
CCCC(CCC)NC(=O)NC(C(=O)CC(CC(=O)C(C)(C)C)C(=O)NC(C(=O)NNC(C)(C)C)C1(C(=O)O)CCCC1)C(C)(C)C [Pr2CHNHC(O) / NHNHCMe3, Pr2CHNHC(O)-Tbg-CH2-(R)-CH(CH2C(O)CMe3)C(O)-Asp(cyPn)-NHNHCMe3] | 6.66 |  |  | pEC50 [2, 3]: 4.08
CCCC(CCC)NC(=O)NC(C(=O)CC(CC(=O)C(C)(C)C)C(=O)NC(C(=O)NC(C)C(C)(C)C)C1(C(=O)O)CCCC1)C(C)(C)CC [Pr2CHNHC(O)-NH-(S)-CH(CMe2Et)-C(O)-CH2-(R)-CH(CH2C(O)CMe3)C(O)-Asp-(cyPn)-NH-(R)-CH(Me)CMe3] |  | 6.60 | 4.89 | 
CCCC(CCC)NC(=O)NC(C(=O)CC(CC(=O)C(C)C)C(=O)NC(C(=O)NCC(C)(C)C)C1(C(=O)O)CCCC1)C(C)(C)C [Pr2CHNHC(O)-Tbg-CH2-(R)-CH(CH2-C(O)CHMe2)C(O)-Asp(cyPn)-NHCH2-CMe3] |  | 6.44 | 4.41 | 
CCCC(CCC)NC(=O)NC(C(=O)CC(CC(=O)C(C)(C)CC)C(=O)NC(C(=O)NCC(C)(C)C)C1(C(=O)O)CCCC1)C(C)(C)C [Pr2CHNHC(O)-Tbg-CH2-(R)-CH(CH2-C(O)CMe2Et)C(O)-Asp(cyPn)-NHCH2-CMe3] |  | 6.68 | 4.48 | 
CCCC(CCC)NC(=O)NC(C(=O)CC(CC(=O)C(C)(C)C)C(=O)NC(C(=O)NCC(C)(C)C)C(CCC)C(=O)O)C(C)(C)C [Pr2CHNHC(O)-Tbg-CH2-(R)-CH(CH2-C(O)CMe3)C(O)-Asp{(R)-Pr}-NHCH2CMe3] |  | 6.60 | 4.34 | 
C=CCC(C(=O)O)C(NC(=O)C(CC(=O)C(NC(=O)NC(CCC)CCC)C(C)(C)C)CC(=O)C(C)(C)C)C(=O)NCC(C)(C)C [Pr2CHNHC(O)-Tbg-CH2-(R)-CH(CH2-C(O)CMe3)C(O)-Asp{(R)-allyl}-NHCH2CMe3] |  | 6.52 | 4.21 | 
CCCC(CCC)NC(=O)NC(C(=O)CC(CC(=O)C(C)(C)C)C(=O)NC(C(=O)NCC(C)(C)C)C1(C(=O)O)CCCC1)C(C)(C)C [Pr2CHNHC(O)-Tbg-CH2-(R)-CH(CH2C(O)-CMe3)C(O)-Asp(cyPn)-NHCH2CMe3] |  |  |  | pIC50 [1, 5]: 7.10; pEC50 [2, 6]: 4.62
CCCC(CCC)NC(=O)NC(C(=O)CC(CC(=O)C(C)(C)C)C(=O)NC(C(=O)NC(CO)CC(C)(C)C)C1(C(=O)O)CCCC1)C(C)(C)C [Pr2CHNHC(O)-Tbg-CH2-(R)-CH(CH2C(O)-CMe3)C(O)-Asp(cyPn)-γMeLeucinol] |  |  |  | pIC50 [1, 5]: 6.70; pEC50 [2, 6]: 4.52
CCCC(CCC)NC(=O)NC(C(=O)CC(CC(=O)C(C)(C)C)C(=O)NC(C(=O)NC1CCCCC1(C)C)C1(C(=O)O)CCCC1)C(C)(C)C [Pr2CHNHC(O)-Tbg-CH2-(R)-CH(CH2C(O)CMe3)C(O)-Asp(cyPn)-NH-(2,2-dimethyl-cyclohexyl)] | 6.40 |  |  | pEC50 [2, 3]: 4.62
CCCC(CCC)NC(=O)NC(C(=O)CC(CC(=O)C(C)(C)C)C(=O)NC(C(=O)NC1CCCC1(C)C)C1(C(=O)O)CCCC1)C(C)(C)C [Pr2CHNHC(O)-Tbg-CH2-(R)-CH(CH2C(O)CMe3)C(O)-Asp(cyPn)-NH-(2,2-dimethyl-cyclopentyl)] | 6.42 |  |  | pEC50 [2, 3]: 4.51
CCCC(CCC)NC(=O)NC(C(=O)CC(CC(=O)C(C)(C)C)C(=O)NC(C(=O)NC(C)C(C)(C)CC)C1(C(=O)O)CCCC1)C(C)(C)C [Pr2CHNHC(O)-Tbg-CH2-(R)-CH(CH2C(O)CMe3)C(O)-Asp(cyPn)-NH-(R)-CH(Me)C(Me)2Et] | 6.30 |  |  | pEC50 ([2]; Human alphaherpesvirus 2, Table IV, cell culture assay of example 11): 4.68
CCCC(CCC)NC(=O)NC(C(=O)CC(CC(=O)C(C)(C)C)C(=O)NC(C(=O)NC1CCCCC1C)C1(C(=O)O)CCCC1)C(C)(C)C [Pr2CHNHC(O)-Tbg-CH2-(R)-CH(CH2C(O)CMe3)C(O)-Asp(cyPn)-cis-NH-(2-methyl-cyclohexyl)] | 6.17 |  |  | pEC50 [2, 3]: 4.12
CCCC(CCC)NC(=O)NC(C(=O)CC(CC(=O)C1(C)CCCC1)C(=O)NC(C(=O)NCC(C)(C)C)C1(C(=O)O)CCCC1)C(C)(C)C [Pr2CHNHC(O)-Tbg-CH2-(R)-CH{CH2-C(O)-(1-methylcyclopentyL)}C(O)-Asp(cyPn)-NHCH2CMe3] |  | 6.62 |  | pEC50 ([2]; Human alphaherpesvirus 2): 4.46
CCCC(CCC)NC(=O)NC(C(=O)CC(CC(=O)C1CCC1)C(=O)NC(C(=O)NCC(C)(C)C)C1(C(=O)O)CCCC1)C(C)(C)C [Pr2CHNHC(O)-Tbg-CH2-(R)-CH{CH2-C(O)-(cyclobutyl)}C(O)-Asp(cyPn)-NHCH2CMe3] |  | 6.51 |  | pEC50 ([2]; Human alphaherpesvirus 2): 4.34
CCCC(CCC)NC(=O)NC(C(=O)CC(CC(=O)C1CCCCC1)C(=O)NC(C(=O)NCC(C)(C)C)C1(C(=O)O)CCCC1)C(C)(C)C [Pr2CHNHC(O)-Tbg-CH2-(R)-CH{CH2-C(O)-(cyclohexyl)}C(O)-Asp(cyPn)-NHCH2CMe3] |  | 6.43 |  | pEC50 ([2]; Human alphaherpesvirus 2): 4.21
CCCC(CCC)NC(=O)NC(C(=O)CC(CC(=O)C(C)(C)C)C(=O)NC(C(=O)NC(C)C(C)(C)C)C1(C(=O)O)CCCC1)C(C)C [Pr2CHNHC(O)-Val-CH2-(R)-CH(CH2-C(O)CMe3)C(O)-Asp(cyPn)-NH-(R)-CH(Me)CMe3] |  | 6.66 | 4.43 | 
EtPr2CHNHC(O)-Tbg-CH2-(R)-CH(CH2C(O)CMe3)C(O)-Asp(cyPn)-NHCH2CHEt2 [EtPr2CHNHC(O) / NHCH2CHEt2] | 6.39 |  |  | pEC50 [2, 7]: 4.38
Me(CH2=CH-CH2)2CNHC(O)-Tbg-CH2-(R)-CH(CH2C(O)CMe3)C(O)-Asp(cyPn)-NHCH2CMe3 [Me(CH2=CHCH2)2-CNHC(O) / NHCH2CMe3] | 6.57 |  |  | pEC50 [2, 7]: 4.52
